Measured values from patent US20260297042A1, “BIARYLAMIDE DERIVATIVES AND THEIR USE AS PKMYT1 INHIBITORS” (CANCER RESEARCH TECHNOLOGY LIMITED, priority 2023, published 2026).

Key:
[1] = system: h-TERT-RPE1 TP53−/− parental cells; assay: Nuclear count cell proliferation assay, parental (wild type) h-TERT-RPE1 TP53−/− cells; assay type: cell-based; settings: hTERT-RPE1, h-TERT-RPE1 TP53−/− parental (Wt), around 6 population doublings, banded, read-out: RPE Wt GI50
Procedure: (§1) h-TERT-RPE1 TP53−/− and CCNE1 high expressing clones (clone cell lines 7 and 15) were treated with test compounds dissolved in DMSO at serially diluted concentrations alongside a DMSO only control for around 6 population doublings time. Cells were then fixed with 4% Paraformaldehyde and the cell nuclei were stained with DAPI (Sigma D9542). Images covering each well were acquired by an Opera Phenix® High-Content Screening System (PerkinElmer). Image analysis was performed using Harmony® high-content analysis software (PerkinElmer). Data analysis was performed using Microsoft Excel® and GI50 estimates generated with GraphPad Prism v9. Percent nuclear count was compared to vehicle control wells and used to measure inhibition of proliferation.

[2] = system: h-TERT-RPE1 TP53−/− CCNE1 high expressing clone cell line 7 (CL7); assay: Nuclear count cell proliferation assay, CCNE1 high expressing clone cell line 7 (CL7) of h-TERT-RPE1 TP53−/−; assay type: cell-based; settings: banded; for Selectivity Ratio Wt vs. CL7: GI50 ratio RPE Wt vs. CL7, >N = at least in this band; for GI50: hTERT-RPE1, h-TERT-RPE1 TP53−/− CCNE1 high clone CL7, nuclear count, around 6 population doublings, read-out: RPE CL7 GI50
Procedure: as §1

[3] = biological target: T1, Human PKMYT1 (Homo sapiens, UniProt Q99640); assay: PKMYT1 biochemical ADP-Glo enzymatic assay; settings: ADP-Glo
T1 construct: Human PKMYT1 75-362 was cloned as a TEV cleavable 6xHis fusion; 6xHis (TEV cleavable) (cleaved yes); made in house; host or cells: bacterial cells
T1 sequence (Q99640 75-362): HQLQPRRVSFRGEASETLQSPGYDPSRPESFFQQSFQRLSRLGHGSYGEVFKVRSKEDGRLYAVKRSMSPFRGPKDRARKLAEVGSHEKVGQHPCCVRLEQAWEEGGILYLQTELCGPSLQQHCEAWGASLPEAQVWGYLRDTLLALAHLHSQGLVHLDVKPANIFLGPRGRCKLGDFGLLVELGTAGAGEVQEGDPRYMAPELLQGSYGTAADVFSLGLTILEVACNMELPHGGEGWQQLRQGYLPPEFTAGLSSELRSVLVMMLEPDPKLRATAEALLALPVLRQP
Summary of the method: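 PKMYT1 75-362 (His-cleaved, bacterial) 15 nM; ATP 500 µM; HEPES pH 7.5, MgCl2, EGTA, Brij-35, 1% DMSO; 60 min, 26 °C; ADP-Glo Max luminescence; 10-pt 3-fold titration → IC50; replicates within 3-fold, r2 >0.9.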

[4] = biological target: T2, WEE1 (Homo sapiens, UniProt P30291); assay: Selectivity versus WEE1 assay (ADP-Glo enzymatic assay); assay type: biochemical; settings: for IC50: ADP-Glo; for PKMYT1 vs. WEE1 selectivity: fold difference in selectivity for PKMYT1 over WEE1
T2 construct: purchased Thermo Fisher PR7373A
Summary of the method: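 15 nM WEE1, 30 µM ATP, 50 mM HEPES pH 7.5, 10 mM MgCl2, 1 mM EGTA, 0.01% Brij-35, 1% DMSO; 60 min, 26° C; ADP-Glo luminescence; IC50 from curve fit, replicates within 3-fold, r2 >0.9.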

[5] = system: OVCAR 3 cells; assay: Cancer cell line proliferation assay, ATP-based cell viability (Cell Titre Glow), OVCAR 3 (CCNE1-amplified); settings: KYSE30 (normal CCNE1) GI50 vs. OVCAR 3 (CCNE1-amplified) GI50
Summary of the method: (§2)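 GI50 reflects half-maximal growth inhibition by PKMYT1 inhibitors, derived by curve fitting of CellTiter-Glo luminescence signals.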

[6] = system: KYSE-30 cells; assay: Cancer cell line proliferation assay, ATP-based cell viability (Cell Titre Glow), KYSE-30 (normal CCNE1); settings: Homo sapiens, KYSE-30 cells (normal CCNE1), concentration that achieves 50% cell growth proliferation inhibition, read-out: KYSE30 Gl50
Summary of the method: as §2

[7] = biological target: T3, Cellular PKMYT1 Biomarker CDK1 pT14 (Homo sapiens, UniProt Q99640); assay: Inhibition of cellular PKMYT1 biomarker CDK1 pT14 in OVCAR 3 cells (immunoblot); assay type: cell-based; settings: 20 hours incubation
T3 construct: read-out CDK1 phospho-T14 immunoblot
T3 sequence (Q99640 1-499): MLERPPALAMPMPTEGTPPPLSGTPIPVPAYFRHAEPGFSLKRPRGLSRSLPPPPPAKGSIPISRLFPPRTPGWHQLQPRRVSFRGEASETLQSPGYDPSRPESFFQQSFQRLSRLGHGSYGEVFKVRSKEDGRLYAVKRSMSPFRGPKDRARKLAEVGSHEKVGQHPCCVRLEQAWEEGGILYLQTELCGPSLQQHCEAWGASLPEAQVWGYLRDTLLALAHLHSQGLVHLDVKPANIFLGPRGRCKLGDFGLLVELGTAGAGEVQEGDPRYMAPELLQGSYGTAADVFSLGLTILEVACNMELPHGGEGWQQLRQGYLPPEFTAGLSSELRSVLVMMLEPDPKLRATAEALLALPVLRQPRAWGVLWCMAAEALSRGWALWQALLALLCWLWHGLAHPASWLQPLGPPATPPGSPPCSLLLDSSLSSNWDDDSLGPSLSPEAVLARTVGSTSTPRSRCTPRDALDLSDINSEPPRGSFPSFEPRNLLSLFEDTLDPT
Summary of the method: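 Confluent OVCAR 3 cells treated with a compound concentration range for 20 h at 37 °C. Lysates analysed by automated capillary immunoblot for CDK1 phospho-T14, with vinculin, fluorescence detection; IC50 by regression.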

[8] = 15 nM PKMYT1 kinase domain, 500 µM ATP, 60 minutes at 26° C., banded
[9] = 15 nM WEE1, 60 minutes at 26° C., banded
[10] = banded, ">N" = at least in this band but could be higher
[11] = PKMYT1 kinase domain 15 nM, banded values

T2 sequence (P30291 whole entry): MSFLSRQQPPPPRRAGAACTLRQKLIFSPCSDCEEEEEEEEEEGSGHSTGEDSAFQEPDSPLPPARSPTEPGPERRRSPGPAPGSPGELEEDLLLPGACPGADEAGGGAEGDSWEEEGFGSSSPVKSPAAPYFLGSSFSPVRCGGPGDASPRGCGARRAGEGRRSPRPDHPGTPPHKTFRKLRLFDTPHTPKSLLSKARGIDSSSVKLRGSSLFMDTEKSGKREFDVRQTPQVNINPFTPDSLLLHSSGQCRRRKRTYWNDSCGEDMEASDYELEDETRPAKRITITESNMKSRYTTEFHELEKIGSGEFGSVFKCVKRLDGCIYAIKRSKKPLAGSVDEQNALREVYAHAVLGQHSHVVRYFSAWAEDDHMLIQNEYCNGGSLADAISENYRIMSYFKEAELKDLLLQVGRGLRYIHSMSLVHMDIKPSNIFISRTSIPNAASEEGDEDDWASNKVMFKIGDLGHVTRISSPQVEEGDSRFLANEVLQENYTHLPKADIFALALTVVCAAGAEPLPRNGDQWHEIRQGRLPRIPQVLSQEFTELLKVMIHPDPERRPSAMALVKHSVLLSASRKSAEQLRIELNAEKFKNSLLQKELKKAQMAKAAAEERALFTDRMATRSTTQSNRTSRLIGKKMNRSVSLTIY

Row | Compound | GI50 [1] | Selectivity Ratio Wt vs. CL7 [2] | GI50 [2] | IC50 [3, 8] | IC50 [4, 9] | PKMYT1 vs. WEE1 selectivity [4, 10] | Selectivity ratio KYSE30 Gl50 vs. OVCAR3 Gl50 [5] | GI50 [6] | IC50 [3, 11] | IC50 ([4]; WEE1 15 nM, banded values) | PKMYT1 vs. WEE1 selectivity ([4]; banded) | IC50 [7]
1 | Cc1ccc(O)c(C)c1NC(=O)c1cnc(Nc2ccn(CC(=O)NC3CCNCC3)n2)s1 [BAA-224, N-(3-hydroxy-2,6-dimethylphenyl)-2-((1-(2-oxo-2-(piperidin-4-ylamino)ethyl)-1H-pyrazol-3-yl)amino)thiazole-5-carboxamide] | 3 to 10 µM | Z (>30 fold) | < 0.5 µM | < 0.05 µM | > 11 µM | X (100-<1000 fold) |  |  |  |  |  | 
2 | Cc1ccc(O)c(C)c1NC(=O)c1cnc(Nc2ccn(CC(=O)OC(C)C)n2)s1 [BAA-209, Isopropyl 2-[3-[[5-[(3-hydroxy-2,6-dimethyl-phenyl)carbamoyl]thiazol-2-yl]amino]pyrazol-1-yl]acetate] | 0.5 to 3 µM | >X (3-<10 fold) | < 0.5 µM | < 0.05 µM | > 11 µM | X (100-<1000 fold) |  |  |  |  |  | 
3 | Cc1ccc(O)c(C)c1NC(=O)c1cnc(Nc2ccn([C@@H]3CCN(Cc4ccccc4)C3)n2)s1 [BAA-113, 2-[[1-[(3R)-1-Benzylpyrrolidin-3-yl]pyrazol-3-yl]amino]-N-(3-hydroxy-2,6-dimethyl-phenyl)thiazole-5-carboxamide] | 3 to 10 µM | Y (10-30 fold) | 0.5 to 3 µM | 0.05 to 1 µM | > 11 µM | >X (100-<1000 fold) |  |  |  |  |  | 
4 | Cc1ccc(O)c(C)c1NC(=O)c1cnc(Nc2ccn(CC(=O)N3CCNC(C)(C)C3)n2)s1 [BAA-229, 2-((1-(2-(3,3-dimethylpiperazin-1-yl)-2-oxoethyl)-1H-pyrazol-3-yl)amino)-N-(3-hydroxy-2,6-dimethylphenyl)thiazole-5-carboxamide] | > 10 µM | X (3-<10 fold) | 3 to 10 µM | < 0.05 µM | > 11 µM | Y (1000-5000 fold) |  |  |  |  |  | 
5 | Cc1ccc(O)c(C)c1NC(=O)c1cnc(Nc2ccn(CC(=O)NC3CC3)n2)s1 [BAA-190] | 3 to 10 µM | X (3-<10 fold) | 0.5 to 3 µM | < 0.05 µM | > 11 µM | Y (1000-5000 fold) |  |  |  |  |  | 
6 | Cc1ccc(O)c(C)c1NC(=O)c1cnc(Nc2ccn(CC(=O)N3CCN(CC4CC4)CC3)n2)s1 [BAA-183] | 3 to 10 µM | X (3-<10 fold) | < 0.5 µM | < 0.05 µM | > 11 µM | Y (1000-5000 fold) |  |  |  |  |  | 
7 | Cc1cn(C(CO)C(=O)N(C)C2CC2)nc1Nc1ncc(C(=O)Nc2c(C)ccc(O)c2C)s1 (stereo not drawn) [BAA-591, 2-((1-(1-(cyclopropyl(methyl)amino)-3-hydroxy-1-oxopropan-2-yl)-4-methyl-1H-pyrazol-3-yl)amino)-N-(3-hydroxy-2,6-dimethylphenyl)thiazole-5-carboxamide] |  |  |  |  |  |  | Y (>20 fold) | > 5 µM | < 0.05 µM | 1 to 11 µM | X (100-<1000 fold) | < 0.1 µM
8 | Cc1cn(CCF)nc1Nc1ncc(C(=O)Nc2c(C)ccc(O)c2C)s1 [BAA-470, 2-((1-(2-fluoroethyl)-4-methyl-1H-pyrazol-3-yl)amino)-N-(3-hydroxy-2,6-dimethylphenyl)thiazole-5-carboxamide] |  |  |  |  |  |  | Y (>20 fold) | > 5 µM | < 0.05 µM | 1 to 11 µM | X (100-<1000 fold) | < 0.1 µM
9 | Cc1ccnc(Nc2ncc(C(=O)Nc3c(C)ccc(O)c3C)s2)c1F [BAA-424, 2-((3-fluoro-4-methylpyridin-2-yl)amino)-N-(3-hydroxy-2,6-dimethylphenyl)thiazole-5-carboxamide] |  |  |  |  |  |  | Y (>20 fold) | > 5 µM | < 0.05 µM | > 11 µM | Y (1000-5000 fold) | < 0.1 µM
10 | Cc1cn(CC(=O)N2CCCC2c2ccccc2)nc1Nc1ncc(C(=O)Nc2c(C)ccc(O)c2C)s1 (stereo not drawn) [BAA-600, N-(3-hydroxy-2,6-dimethylphenyl)-2-((4-methyl-1-(2-oxo-2-(2-phenylpyrrolidin-1-yl)ethyl)-1H-pyrazol-3-yl)amino)thiazole-5-carboxamide] |  |  |  |  |  |  | Y (>20 fold) | 0.5 to 5 µM | < 0.05 µM | 1 to 11 µM | X (100-<1000 fold) | < 0.1 µM
11 | Cc1ccc(O)c(C)c1NC(=O)c1cnc(Nc2cccc(N(C)CCC#N)n2)s1 [BAA-401, 2-((6-((2-cyanoethyl)(methyl)amino)pyridin-2-yl)amino)-N-(3-hydroxy-2,6-dimethylphenyl)thiazole-5-carboxamide] |  |  |  |  |  |  | Y (>20 fold) | 0.5 to 5 µM | < 0.05 µM | 1 to 11 µM | W (10-<100 fold) | < 0.1 µM
12 | Cc1ccc(O)c(C)c1NC(=O)c1cnc(Nc2ccc3ccncc3n2)s1 [BAA-597, 2-((1,7-naphthyridin-2-yl)amino)-N-(3-hydroxy-2,6-dimethylphenyl)thiazole-5-carboxamide] |  |  |  |  |  |  | Y (>20 fold) | 0.5 to 5 µM | < 0.05 µM | > 11 µM | X (100-<1000 fold) | 0.1 to 1 µM
